From patent US9376391B2, “Difluoromethyl-nicotinic-tetrahydronaphthyl carboxamides as fungicides” (BAYER CROPSCIENCE AKTIENGESELLSCHAFT, priority 2012, dated 2016) come the findings set out here.

Data set [1] is described as follows: log P by HPLC on reversed phase columns (EEC directive 79/831 Annex V.A8). In kind it is physicochemical. The note with it: Table 1, formula (I); HPLC/LC-MS at pH 2.7, 0.1% formic acid in water / acetonitrile, gradient 10% to 95%.
The next data set relates to Alternaria brassicae. The data set is described as follows: In vivo preventive test on Alternaria brassicae (leaf spot on radish). The note with it: spray, graded 6 days after contamination vs control plants. Summed up: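 Radish cv. Pernod Clair at cotyledon stage (grown 17 °C) sprayed with compound in acetone/tween/DMSO/water, then inoculated 24 h later with A. brassicae spores (50 000 spores per ml). Incubation 20 °C, 100% RH; % efficacy graded 6 days post-inoculation versus solvent-treated controls.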

In the next data set the test system is Pyrenophora teres. Put plainly: In vivo preventive test on Pyrenophora teres (net blotch on barley). The note with it: barley, spray, graded 14 days after contamination vs control plants. Here is the method: In Vivo Preventive Test on Pyrenophora teres (Net Blotch on Barley)
The active ingredients tested are prepared by homogenization in a mixture of acetone/tween/DMSO, and then diluted with water to obtain the desired active material concentration.
Barley plants (“Plaisant” variety), sown in starter cups on a 50/50 peat soil-pozzolana substrate and grown at 22° C., are treated at the 1-leaf stage (10 cm height) by spraying with the active ingredient prepared as described above. Plants, used as controls, are treated with the mixture of acetone/tween/DMSO/water not containing the active material.
After 24 hours, the plants are contaminated by spraying the leaves with an aqueous suspension of Pyrenophora teres spores (12 000 spores per ml). The spores are collected from a 12-day-old culture. The contaminated barley plants are incubated for 48 hours at 20° C. and at 100% relative humidity, and then for 12 days at 20° C. at 70-80% relative humidity.
Grading (% of efficacy) is carried out 14 days after the contamination, in comparison with the control plants. plants.

The next data set has as its system Puccinia recondita. Put plainly: In vivo preventive test on Puccinia recondita (brown rust on wheat). The note with it: wheat, spray, graded 12 days after contamination vs control plants. Summed up: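 Wheat seedlings ("Scipion") sprayed with compound at the 1-leaf stage, inoculated 24 h later with Puccinia recondita spores (100 000 spores per ml). Incubated 24 h at 20° C and 100% RH, then 10 days at 20° C and 70-80% RH. Efficacy (%) versus solvent-treated controls graded 12 days after contamination.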

The test system of the next data set is Sphaerotheca fuliginea. Put plainly: In vivo preventive test on Sphaerotheca fuliginea (powdery mildew on cucurbits). The note with it: preventive spray, gherkin plants, grading 12 days after contamination. Summed up: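 Gherkin plants at Z11 cotyledon stage were sprayed with compound in acetone/tween/DMSO/water. After 24 h they were inoculated with S. fuliginea spores (100 000 spores per ml) and incubated at about 20° C and 70-80% RH. Percent efficacy versus solvent-treated controls was scored 12 days post-inoculation.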

A further data set deals with Uromyces appendiculatus. Put plainly: In vivo preventive test on Uromyces appendiculatus (bean rust). The note with it: preventive spray, bean plants, grading 11 days after contamination. The method in brief:
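'Saxa' bean plants at the 2-leaf stage were sprayed with compound and inoculated 24 h later with U. appendiculatus spores (150 000 spores per ml). Plants were incubated 24 h at 20 °C and 100% RH, then 10 days at 20 °C and 70–80% RH. Percent efficacy versus solvent-treated controls was graded 11 days post-inoculation.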

The next data set relates to Phakopsora pachyrhizi. The data set is described as follows: Phakopsora test (soybeans)/preventive. The note with it: evaluated 7 days after inoculation. In kind it is in vivo. As for the experimental part: Phakopsora Test (Soybeans)/Preventive
To produce a suitable preparation of active compound, 1 part by weight of active compound is mixed with the stated amounts of solvent and emulsifier, and the concentrate is diluted with water to the desired concentration.
To test for preventive activity, young plants are sprayed with the preparation of active compound at the stated rate of application. After the spray coating has dried on, the plants are inoculated with an aqueous spore suspension of the causal agent of soybean rust (Phakopsora pachyrhizi) and stay for 24 h without light in an incubation cabinet at approximately 24° C. and a relative atmospheric humidity of 95%.
The plants remain in the incubation cabinet at approximately 24° C. and a relative atmospheric humidity of approximately 80% and a day/night interval of 12 h.
The test is evaluated 7 days after the inoculation. 0% means an efficacy which corresponds to that of the untreated control, while an efficacy of 100% means that no disease is observed.

A further data set relates to Septoria tritici. The data set is described as follows: In vivo preventive test on Septoria tritici (leaf spot on wheat). The note with it: 500 ppm, preventive spray, wheat plants, grading 24 days after contamination. The method in brief:
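Wheat cv. Scipion sprayed preventively at 1-leaf stage; inoculated 24 h later with Septoria tritici spores (500 000 spores per ml). Incubation 72 h at 18 °C, 100% RH, then 21 days at 90% RH; % efficacy graded 24 days after contamination against solvent-treated controls.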

A further data set concerns Botrytis cinerea. The data set is described as follows: In vivo preventive test on Botrytis cinerea (grey mould), gherkin plants. The note with it: gherkin, spray, graded 4 to 5 days after contamination vs control plants. As for the experimental part: In Vivo Preventive Test on Botrytis cinerea (Grey Mould)
The active ingredients tested are prepared by homogenization in a mixture of acetone/tween/DMSO and then diluted with water to obtain the desired active material concentration.
Gherkin plants (“Vert petit de Paris” variety), sown in starter cups on a 50/50 peat soil-pozzolana substrate and grown at 24° C., are treated at the Z11 cotyledon stage by spraying with the active ingredient prepared as described above. Plants, used as controls, are treated with the mixture of acetone/tween/DMSO/water not containing the active material.
After 24 hours, the plants are contaminated by spraying the cotyledons with an aqueous suspension of cryopreserved Botrytis cinerea spores (50 000 spores per ml). The spores are suspended in a nutrient solution composed of 10 g/L of PDB, 50 g/L of D-Fructose, 2 g/L of NH4NO3 and 1 g/L of KH2PO4. The contaminated gherkin plants are incubated at 17° C. and at 90% relative humidity.
Grading (% of efficacy) is carried out 4 to 5 days after the contamination, in comparison with the control plants.

With `CCC1OC(CC)(CC)c2cccc(NC(=O)c3cccnc3C(F)F)c21` (racemic) [Example 71], in [1], the “logP^[a]” value was 3.23^[a]. The Eff. % is listed as 88% in the data set on Alternaria brassicae (dose 100 ppm); 92% with Pyrenophora teres (dose 100 ppm); 98% in the data set with Puccinia recondita (dose 100 ppm); 100% in the data set on Sphaerotheca fuliginea (100 ppm); 100% in the data set with Uromyces appendiculatus (100 ppm); 94% in the data set with Phakopsora pachyrhizi (10 ppm of active ingredient).
For the molecule `CC(C)CC1CC(C)c2c(NC(=O)c3cccnc3C(F)F)cccc21` (stereo not drawn) [Example 57], the “logP^[a]” value in data set [1] was 4.15^[a]. Further, the Eff. % is recorded as 97% in the data set on Alternaria brassicae (dose 500 ppm); 97% in the data set on Pyrenophora teres (dose 500 ppm); 98% in the data set with Puccinia recondita (dose 500 ppm); 98% in the data set on Sphaerotheca fuliginea (500 ppm); 100% with Uromyces appendiculatus (500 ppm); 93% in the data set on Phakopsora pachyrhizi (10 ppm of active ingredient).
Consider `CC1CC(C)(C)c2cccc(NC(=S)c3cccnc3C(F)F)c21` (racemic) [Example 9], for which, in data set [1], the “logP^[a]” value is 3.74^[a]. Further, the Eff. % is recorded as 86% with Pyrenophora teres (dose 500 ppm); 100% with Puccinia recondita (dose 500 ppm); 98% in the data set with Septoria tritici; 100% with Sphaerotheca fuliginea (500 ppm); 100% with Uromyces appendiculatus (500 ppm); 99% in the data set on Phakopsora pachyrhizi (100 ppm of active ingredient).
With `CC(C)C1Cc2c(NC(=O)c3cccnc3C(F)F)cccc2C1(C)C` (racemic) [Example 43], the “logP^[a]” value in [1] was 4.11^[a]. Also, the Eff. % with Alternaria brassicae (dose 500 ppm) worked out at 100%; in the data set with Puccinia recondita (dose 500 ppm) it was 98%; with Septoria tritici, 86%; with Sphaerotheca fuliginea (500 ppm), 100%; in the data set with Uromyces appendiculatus (500 ppm), 100%; with Phakopsora pachyrhizi (10 ppm of active ingredient) it was 98%.
On to `CC1CC(C)(C)c2cccc(NC(=O)c3cccnc3C(F)F)c21` (stereo not drawn) [Example 13], for which the “logP^[a]” value in [1] was 3.25^[a]. The Eff. % with Alternaria brassicae (dose 500 ppm) came to 93%; in the data set on Pyrenophora teres (dose 500 ppm) it was 100%; in the data set with Puccinia recondita (dose 500 ppm) it was 100%; with Septoria tritici, 83%; with Sphaerotheca fuliginea (500 ppm), 100%; with Uromyces appendiculatus (500 ppm) it was 100%. The molecule also registered an Eff. % in the data set on Phakopsora pachyrhizi (100 ppm of active ingredient) of 99%.
In the case of `CCC1(C)CC(C)c2c(NC(=O)c3cccnc3C(F)F)cccc21` (mixture of isomers) [Example 81], the “logP^[a]” value in [1] was 3.64^[a]. Further, the Eff. % with Alternaria brassicae (dose 100 ppm) is recorded as 70%; in the data set with Botrytis cinerea (dose 100 ppm) it was 100%; with Puccinia recondita (dose 100 ppm), 100%; in the data set on Sphaerotheca fuliginea (100 ppm), 94%; in the data set with Uromyces appendiculatus (100 ppm) it was 99%; in the data set on Phakopsora pachyrhizi (10 ppm of active ingredient), 100%.
Turning to `CC1CC(C(C)C)c2cccc(NC(=O)c3cccnc3C(F)F)c21` (stereo not drawn) [Example 3], in data set [1], the “logP^[a]” value was 3.65^[a]. The Eff. % in the data set on Alternaria brassicae (dose 500 ppm) was determined as 86%; with Pyrenophora teres (dose 500 ppm) it was 83%; in the data set with Puccinia recondita (dose 500 ppm), 97%; in the data set on Septoria tritici it was 90%; in the data set on Sphaerotheca fuliginea (500 ppm), 95%; in the data set with Uromyces appendiculatus (500 ppm), 100%. Further, in the data set on Phakopsora pachyrhizi (100 ppm of active ingredient), the Eff. % turned out to be 100%.
For `CC1Cc2c(NC(=O)c3cccnc3C(F)F)cccc2C1(C)C` (stereo not drawn) [Example 14], in data set [1], the “logP^[a]” value was 3.33^[a]. The Eff. % with Pyrenophora teres (dose 500 ppm) is given as 92%; in the data set on Puccinia recondita (dose 500 ppm) it was 100%; with Septoria tritici it was 97%; in the data set on Sphaerotheca fuliginea (500 ppm), 98%; with Uromyces appendiculatus (500 ppm), 100%; in the data set with Phakopsora pachyrhizi (10 ppm of active ingredient), 100%.
As for `CC1CC(CC(C)(C)C)c2cccc(NC(=O)c3cccnc3C(F)F)c21` (stereo not drawn) [Example 46], the “logP^[a]” value in data set [1] was 4.39^[a]. Moreover, the Eff. % in the data set with Alternaria brassicae (dose 500 ppm) was 98%; in the data set on Botrytis cinerea (dose 500 ppm) it was 83%; in the data set on Puccinia recondita (dose 500 ppm) it was 98%; in the data set with Septoria tritici, 71%; with Sphaerotheca fuliginea (500 ppm) it was 100%; in the data set on Uromyces appendiculatus (500 ppm), 100%. In the data set on Phakopsora pachyrhizi (10 ppm of active ingredient), this molecule displayed an Eff. % of 90%.
